The source of these data is patent US8569338B2, “Methods of using 4, 5, 6, 7-tetrahydroimidazo-[4,5-c]pyridine compounds” (Proximagen Ltd., priority 2008, dated 2013).

For this assay, the target named is purified recombinantly expressed human SSAO (Homo sapiens (Human), UniProt Q16853). Description: SSAO enzyme inhibition assay (HRP-coupled Amplex Red, benzylamine substrate). It is filed as biochemical. Conditions: benzylamine 100 μM, approximately 60 minutes pre-incubation, pH 7.4, room temperature. The procedure: Biological Assay of the SSAO Enzyme Inhibitors
Sequence of purified recombinantly expressed human SSAO (Q16853 29-763): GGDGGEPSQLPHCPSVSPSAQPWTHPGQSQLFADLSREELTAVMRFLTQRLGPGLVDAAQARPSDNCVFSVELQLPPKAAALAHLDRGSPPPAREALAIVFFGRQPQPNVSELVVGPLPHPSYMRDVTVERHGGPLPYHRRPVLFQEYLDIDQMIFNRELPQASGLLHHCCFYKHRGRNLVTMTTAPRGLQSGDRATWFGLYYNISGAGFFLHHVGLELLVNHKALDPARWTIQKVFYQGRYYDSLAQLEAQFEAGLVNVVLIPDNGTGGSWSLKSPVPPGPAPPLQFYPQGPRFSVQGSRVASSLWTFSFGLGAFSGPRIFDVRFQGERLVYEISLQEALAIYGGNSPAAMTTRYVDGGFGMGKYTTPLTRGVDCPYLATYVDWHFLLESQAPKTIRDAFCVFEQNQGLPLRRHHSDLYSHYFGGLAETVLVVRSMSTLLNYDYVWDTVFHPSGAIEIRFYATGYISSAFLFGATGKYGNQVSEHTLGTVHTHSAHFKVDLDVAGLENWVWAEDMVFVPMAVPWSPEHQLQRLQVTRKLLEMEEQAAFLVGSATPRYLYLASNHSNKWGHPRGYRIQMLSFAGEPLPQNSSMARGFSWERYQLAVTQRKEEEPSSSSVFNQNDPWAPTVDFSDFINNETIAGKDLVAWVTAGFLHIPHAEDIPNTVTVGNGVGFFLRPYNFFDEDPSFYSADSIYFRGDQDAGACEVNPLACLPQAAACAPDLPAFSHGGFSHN
All assays were performed in room temperature with purified recombinantly expressed human SSAO. Enzyme was prepared essentially as described in Ohman et al. (Protein Expression and Purification 2006, 46, 321-331). The enzyme activity was measured with benzylamine as substrate and utilized the production of hydrogen peroxide for detection. In a horseradish peroxidise (HRP) coupled reaction, hydrogen peroxide oxidation of 10-acetyl-3,7-dihydroxyphenoxazine produced resorufin, which is a highly fluorescent compound (Zhout and Panchuk-Voloshina. Analytical Biochemistry 1997, 253, 169-174; Amplex® Red Hydrogen Peroxide/peroxidise Assay kit, Invitrogen A22188).
Briefly, test compounds were dissolved in dimethyl sulfoxide (DMSO) to a concentration of 10 mM. Dose-response measurements were assayed by either creating 1:10 serial dilutions in DMSO to produce a 7 point curve or by making 1:3 serial dilutions in DMSO to produce 11 point curves. The top concentrations were adjusted depending on the potency of the compounds and subsequent dilution in reaction buffer (50 mM sodium phosphate, pH 7.4) yielded a final DMSO concentration≦2%. Enzyme and compounds were set to pre-incubate in flat-bottomed microtiter plates for approximately 60 minutes before initiating the reaction by addition of a mixture of HRP, benzylamine and Amplex reagent. Fluorescence intensity was then measured at several time points (15 minutes, 20 minutes and 30 minutes) exciting at 544 nm and reading the emission at 590 nm). Final concentrations of the reagents in the assay wells were: SSAO enzyme 2 μg/ml, benzylamine 100 μM, Amplex reagent 20 μM, HRP 0.1 U/mL and varying concentrations of test compound. The inhibition was measured as % decrease of the signal compared to a control without inhibitor (only diluted DMSO). The background signal from a sample containing no SSAO enzyme was subtracted from all data points. Data was fitted to a four parameter logistic model and IC50 values were calculated using the GraphPad Prism 4 or XLfit 4 programs.
For `CC(C)C1c2[nH]cnc2CCN1C(=O)OCC1CCOC1` (stereo not drawn) [Example 17, Tetrahydrofuran-3-ylmethyl 4-isopropyl-1,4,6,7-tetrahydro-5H-imidazo[4,5-c]-pyridine-5-carboxylate], the IC50 was determined as 91 nM. For `CC(C)C1c2[nH]cnc2CCN1C(=O)OCCOc1ccccc1` (stereo not drawn) [Example 14, 2-Phenoxyethyl 4-isopropyl-1,4,6,7-tetrahydro-5H-imidazo[4,5-c]pyridine-5-carboxylate], the IC50 came out at 48 nM. To `CC(C)C1c2[nH]cnc2CCN1C(=O)OCc1cccnc1` (stereo not drawn) [Example 7, Pyridin-3-ylmethyl 4-isopropyl-1,4,6,7-tetrahydro-5H-imidazo[4,5-c]pyridine-5-carboxylate] belongs 34 nM.
